Reference: ChEMBL document CHEMBL2007661, “Compounds: GSK PKIS; Assays: UNC Frye lab” (2012)
Where “and” joins values, the source holds several entries; their conditions need not be identical. Identical values can stand only once.

What was measured:
Conditions in all cases: at 1 µM
[1] = target: T1, Serine/threonine-protein kinase TBK1 (Homo sapiens) (UniProt Q9UHD2)
T1 sequence (whole entry): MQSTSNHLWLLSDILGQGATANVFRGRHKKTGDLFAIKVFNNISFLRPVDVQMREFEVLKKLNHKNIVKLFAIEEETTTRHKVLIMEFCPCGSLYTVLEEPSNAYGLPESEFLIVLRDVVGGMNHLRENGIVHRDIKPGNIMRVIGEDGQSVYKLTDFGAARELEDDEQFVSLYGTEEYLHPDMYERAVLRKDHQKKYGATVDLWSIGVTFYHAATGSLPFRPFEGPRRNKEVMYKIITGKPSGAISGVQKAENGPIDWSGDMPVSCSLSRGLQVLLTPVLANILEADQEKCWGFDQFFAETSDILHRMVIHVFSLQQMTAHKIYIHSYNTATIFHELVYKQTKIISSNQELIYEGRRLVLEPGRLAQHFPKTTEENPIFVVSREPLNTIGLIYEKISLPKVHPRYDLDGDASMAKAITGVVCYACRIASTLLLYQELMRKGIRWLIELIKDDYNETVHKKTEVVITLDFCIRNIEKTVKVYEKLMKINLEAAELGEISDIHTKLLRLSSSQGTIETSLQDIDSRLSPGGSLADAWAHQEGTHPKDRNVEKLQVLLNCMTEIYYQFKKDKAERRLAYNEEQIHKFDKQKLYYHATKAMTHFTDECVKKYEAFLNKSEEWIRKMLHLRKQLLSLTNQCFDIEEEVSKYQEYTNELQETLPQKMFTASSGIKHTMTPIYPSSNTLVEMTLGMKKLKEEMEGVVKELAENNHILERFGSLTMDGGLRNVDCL

[2] = target: T2, Inhibitor of nuclear factor kappa-B kinase subunit beta (Homo sapiens) (UniProt O14920)
T2 sequence (whole entry): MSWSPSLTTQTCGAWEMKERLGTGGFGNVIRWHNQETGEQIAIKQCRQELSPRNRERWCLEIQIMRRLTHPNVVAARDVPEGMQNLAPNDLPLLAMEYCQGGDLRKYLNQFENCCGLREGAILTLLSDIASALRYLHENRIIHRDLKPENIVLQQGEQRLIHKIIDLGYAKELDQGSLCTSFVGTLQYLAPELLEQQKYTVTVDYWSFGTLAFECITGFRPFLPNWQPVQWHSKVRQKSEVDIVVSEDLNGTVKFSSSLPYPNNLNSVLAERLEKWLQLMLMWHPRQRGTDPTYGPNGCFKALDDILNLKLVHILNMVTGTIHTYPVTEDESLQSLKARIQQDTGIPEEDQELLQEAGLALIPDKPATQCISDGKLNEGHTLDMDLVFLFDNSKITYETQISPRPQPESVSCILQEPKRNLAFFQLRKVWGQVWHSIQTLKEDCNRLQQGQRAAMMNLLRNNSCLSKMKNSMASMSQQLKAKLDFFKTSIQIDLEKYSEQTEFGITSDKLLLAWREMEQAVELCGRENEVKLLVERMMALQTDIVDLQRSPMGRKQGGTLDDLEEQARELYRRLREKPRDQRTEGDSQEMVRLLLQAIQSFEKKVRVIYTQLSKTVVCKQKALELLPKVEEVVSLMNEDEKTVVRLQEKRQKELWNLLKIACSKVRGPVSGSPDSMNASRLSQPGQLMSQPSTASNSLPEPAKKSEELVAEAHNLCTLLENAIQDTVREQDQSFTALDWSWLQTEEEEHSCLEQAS

[3] = target: T3, Inhibitor of nuclear factor kappa-B kinase subunit alpha (Homo sapiens) (UniProt O15111)
T3 sequence (whole entry): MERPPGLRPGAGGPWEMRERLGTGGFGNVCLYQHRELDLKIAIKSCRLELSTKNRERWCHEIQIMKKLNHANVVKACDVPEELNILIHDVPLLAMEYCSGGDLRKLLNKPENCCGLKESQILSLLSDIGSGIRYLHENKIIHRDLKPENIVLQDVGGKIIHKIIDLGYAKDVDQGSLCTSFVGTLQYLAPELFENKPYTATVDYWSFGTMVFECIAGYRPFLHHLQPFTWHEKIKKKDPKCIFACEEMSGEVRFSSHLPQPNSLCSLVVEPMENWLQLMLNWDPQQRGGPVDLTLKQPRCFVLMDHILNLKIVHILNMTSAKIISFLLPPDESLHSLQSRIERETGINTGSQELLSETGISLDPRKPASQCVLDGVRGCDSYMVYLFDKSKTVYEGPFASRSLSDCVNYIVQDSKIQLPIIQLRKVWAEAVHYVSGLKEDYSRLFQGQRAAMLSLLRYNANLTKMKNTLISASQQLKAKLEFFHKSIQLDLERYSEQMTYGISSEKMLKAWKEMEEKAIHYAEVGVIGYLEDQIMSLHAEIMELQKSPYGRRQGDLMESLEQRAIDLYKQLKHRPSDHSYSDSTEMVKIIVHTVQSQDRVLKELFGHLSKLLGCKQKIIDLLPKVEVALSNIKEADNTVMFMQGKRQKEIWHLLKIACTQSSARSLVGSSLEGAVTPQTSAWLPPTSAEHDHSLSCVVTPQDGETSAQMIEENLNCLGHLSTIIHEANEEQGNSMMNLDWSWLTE

SMILES	inhibition [1]	inhibition [2]	inhibition [3]
CCn1c(-c2nonc2N)nc2c(C#CCN)ncc(OCCCN)c21	1% and 4%	-3% and -6%	22%
CCn1c(-c2nonc2N)nc2cncc(C(=O)N3CCNCC3)c21	3% and 0%	13% and -2%	2% and 0%
COc1cc2ncnc(Nc3ccc(C)c(O)c3)c2cc1OC	3% and 1%	-7% and -4%	0% and 1%
COc1cc(N2CCN(C(C)C)CC2)ccc1Nc1nc(Nc2ccc(F)cc2C(N)=O)c2cc[nH]c2n1	16% and 10%	0% and -4%	3%
COC(=O)c1cncc(/C=C/c2c(C)cc(O)cc2C)c1	-1% and 2%	-4% and -5%	3% and 2%
COc1cc(Nc2nccc(Nc3ccc4c(C)n[nH]c4c3)n2)cc(OC)c1OC	33% and 30%	-2%	-1% and -2%
CN1CCC(n2cnc(-c3ccc(F)cc3)c2-c2ccnc(NCCO)n2)CC1	-6% and -9%	-3% and -4%	0% and 1%
Nc1nonc1-c1nc2cnccc2n1C1CCCCC1	36% and 37%	-7%	39% and 36%
O=C(O[C@H]1CN[C@H](C#Cc2cc3ncnc(Nc4ccc(OCc5cccc(F)c5)c(Cl)c4)c3s2)C1)N1CCOCC1	1% and 3%	0% and -1%	-1% and 0%
COc1cc(Nc2nccc(-c3cnn4ncccc34)n2)cc(OC)c1	38% and 33%	-9%	-4% and -2%
Cc1ccc(C(=O)NC(C)C)cc1-c1ccc(C(=O)NCC2CC2)cc1	-1% and -2%	-1% and 3%	0% and -2%
CCOc1ccc2c(-c3ccnc(Nc4cc(OC)cc(C(F)(F)F)c4)n3)cnn2n1	51% and 43%	-1%	4% and -1%
Cc1ccc(C(=O)NC2CCC2)cc1-c1ccc(C(=O)NCC2CC2)cc1	-4% and -6%	-7% and -4%	4%
COc1cc2c(cc1Nc1nc(Nc3cccc(F)c3C(N)=O)c3cc[nH]c3n1)N(C(=O)CN1CCN(C(C)C)CC1)CC2	-2% and -6%	-1% and -3%	4% and 5%
CC1=C(C(=O)Nc2ccc3[nH]nc(C)c3c2)C(c2ccc(C(F)(F)F)cc2)CC(=O)N1 (stereo unspecified)	-5% and -3%	6% and 0%	4% and 5%
Nc1nccc(-c2c(-c3ccc(F)cc3)ncn2CCCN2CCOCC2)n1	0% and 1%	-5% and -8%	6% and 5%
CN1CCN(C(=O)c2ccc(NC(=O)Nc3ccc(N(C)c4ccnc(Nc5ccc(CS(C)(=O)=O)cc5)n4)cc3)cc2)CC1	14% and 13%	-5% and -8%	1% and 2%
O=C(O[C@H]1CN[C@H](C#Cc2cc3ncnc(Nc4ccc(Cc5ccccc5)cc4)c3s2)C1)N1CCOCC1	14% and 20%	2% and 3%	-7%

Now from value to compound:

inhibition [1]	inhibition [2]	inhibition [3]	SMILES
6% and 11%	-4% and -3%	4% and 2%	NC(=O)c1cccc(Nc2nccc(Nc3cccc(F)c3)n2)c1
-4% and 3%	-2% and 0%	11% and -1%	Fc1ccc(-c2nc3n(c2-c2ccncc2)CCS3)cc1
-4% and -2%	-2% and -5%	2%	O=C(Nc1n[nH]c2cc(-c3cc(F)ccc3F)ccc12)C1CC1
-2% and 0%	-1% and -3%	2%	COc1ccc(-c2nn3ncccc3c2-c2ccnc(Nc3cccc(C(F)(F)F)c3)n2)cc1
0% and 3%	1% and 0%	0% and -1%	NC(=O)c1sc(-n2cnc3ccccc32)cc1OCc1ccccc1Br
-6% and -9%	-7% and -1%	8% and 4%	COc1ccc(-c2nn3ncccc3c2-c2ccnc(Nc3ccc(F)c(F)c3)n2)cc1
0%	-1% and 0%	-2%	Nc1ncc(-c2cccc(S(N)(=O)=O)c2)c2scc(-c3ccc(F)c(Cl)c3)c12
-1% and -2%	-1%	2% and 3%	NC(=O)Cc1ccccc1Oc1nccc(-c2c(-c3ccc(F)cc3)ncn2C2CCNCC2)n1
56% and 50%	2% and 1%	-1%	COc1cc2ncn(-c3cc(OCc4ccccc4Cl)c(C(N)=O)s3)c2cc1OC
-1% and 1%	-3% and -6%	6% and 4%	Cc1ccc2c(-c3ccnc(Nc4cccc(C(F)(F)F)c4)n3)c(-c3ccccc3)nn2n1
2% and 1%	-3% and -1%	1% and 2%	NS(=O)(=O)c1cccc(-c2ccc3c(NC(=O)C4CC4)n[nH]c3c2)c1
75% and 71%	-4% and 0%	1% and 2%	COc1cc(Nc2ncc3c(C)nc(-c4cccc(Oc5ccccc5)c4)n3n2)cc(OC)c1OC
-4% and -3%	-2% and -1%	0% and -1%	c1ccc(-c2n[nH]cc2-c2ccnc(-c3ccc(OCCn4ccnc4)cc3)c2)nc1
-4% and 0%	-5% and -6%	3%	C#Cc1cccc(Nc2ncnc3ccc(OCCCCNCCS(C)(=O)=O)cc23)c1
0% and -4%	6% and 3%	1% and -8%	COc1ccc2ncn(-c3cc(O[C@H](C)c4ccccc4Cl)c(C(N)=O)s3)c2c1
32% and 29%	-4% and -2%	7% and 3%	NS(=O)(=O)c1ccc(N/N=C2\C(=O)Nc3ccc(C(=O)NCCc4c[nH]cn4)cc32)cc1
-1% and 0%	5% and -2%	-1%	Clc1ccc(CNc2nccc(-c3cnn4ncccc34)n2)cc1
-3% and -1%	0% and -1%	-1% and 0%	CS(=O)(=O)CCNCc1ccc(-c2ccc3ncnc(Nc4ccc(OCc5cccc(C(F)(F)F)c5)cc4)c3c2)o1
23% and 21%	-2%	0% and -3%	NS(=O)(=O)c1cccc(Nc2cc(-c3ccc(F)cc3)n[nH]2)c1
13%	1% and 2%	-3% and 14%	CCS(=O)(=O)c1ccc(OC)c(Nc2ncc(-c3cccc(-c4ccccc4F)c3)o2)c1
-3%	-3%	3%	COC(=O)Nc1nc2ccc(Sc3ccc(NC(=O)Nc4cc(C(F)(F)F)ccc4F)cc3)cc2[nH]1
-2% and 3%	4% and 10%	9% and -3%	Cc1ccc2c(c1)/C(=N/Nc1ccc(S(N)(=O)=O)cc1)C(=O)N2
6% and 3%	-2% and 0%	-1% and 17%	CNC(=O)c1cccc(C#Cc2cncnc2Nc2ccc(OCc3cccc(F)c3)c(Cl)c2)c1
2% and 1%	-1% and -4%	2% and 21%	COc1cccc(/C=N/Nc2ncnc3c2cnn3-c2cccc(OC)c2)c1
